Measurements taken from patent EP1767091A2, “Biocidal compositions” (Clariant Produkte (Deutschland) GmbH, priority 2005, dated 2007).

What was measured:
[1] = Solubility of biocidal active substances in various solvents, by stepwise concentration of a 10 wt% starting solution at 25°C; assay type: physicochemical
Description: Die nachfolgenden Beispiele dienen der näheren Erläuterung der Erfindung. Alle Prozentangaben sind Gewichtsprozente, sofern nicht anders angegeben. Tabelle 1: Löslichkeiten von bioziden Wirksubstanzen in verschiedenen Lösemitteln
Die Löslichkeiten wurden durch schrittweises Aufkonzentrieren einer Startlösung bei 10 Gew.-% bei 25°C ermittelt. Tabelle 2: Lagerstabilität von bioziden Wirksubstanzen in verschiedenen Lösemitteln bei -5°C, +20°C und +50°C bei 14 Tagen Lagerdauer

[2] = in Tierversuchen; cited from earlier work
[3] = solvent N-Methylpyrrolidon (NMP), weight percent
[4] = solvent Dipropylenglykol (DPG), weight percent
[5] = solvent Tetraethylenglykoldimethylether (TEGDME), weight percent
[6] = solvent TEGDME / DPG 1:2,7, weight percent

O=[N+]([O-])C(Br)(CO)CO [1 (V), 2-Bromo-2-nitro-1,3-propandiol]
Löslichkeit [25°C] [1, 3]: 51%

O=[N+]([O-])C(Br)(CO)CO [4(V), 2-Bromo-2-nitro-1,3-propandiol]
Löslichkeit [25°C] [1, 4]: 26%

CCCCNC(=O)OCC#CI [5(V), 3-Jod-2-propinyl-butylcarbamat]
Löslichkeit [25°C] [1, 3]: 45%

CCCCNC(=O)OCC#CI [8(V), 3-Jod-2-propinyl-butylcarbamat]
Löslichkeit [25°C] [1, 4]: 34%

N#CCCC(Br)(C#N)CBr (stereo not shown) [13(V), 1,2-Dibromo-2,4-dicyanobutan]
Löslichkeit [25°C] [1, 3]: 39%

N#CCCC(Br)(C#N)CBr (stereo not shown) [16(V), 1,2-Dibromo-2,4-dicyanobutan]
Löslichkeit [25°C] [1, 4]: 21%

O=[N+]([O-])C(Br)(CO)CO [Beispiel 2, 2-Bromo-2-nitro-1,3-propandiol]
Löslichkeit [25°C] [1, 5]: 56%

O=[N+]([O-])C(Br)(CO)CO [Beispiel 3, 2-Bromo-2-nitro-1,3-propandiol]
Löslichkeit [25°C] [1, 6]: 39%

CCCCNC(=O)OCC#CI [Beispiel 6, 3-Jod-2-propinyl-butylcarbamat]
Löslichkeit [25°C] [1, 5]: 52%

CCCCNC(=O)OCC#CI [Beispiel 7, 3-Jod-2-propinyl-butylcarbamat]
Löslichkeit [25°C] [1, 6]: 50%

N#CCCC(Br)(C#N)CBr (stereo not shown) [Beispiel 14, 1,2-Dibromo-2,4-dicyanobutan]
Löslichkeit [25°C] [1, 5]: 47%

N#CCCC(Br)(C#N)CBr (stereo not shown) [Beispiel 15, 1,2-Dibromo-2,4-dicyanobutan]
Löslichkeit [25°C] [1, 6]: 34%

CN1CCCC1=O [N-Methyl-2-Pyrrolidon]
fruchtschädigende Wirkung [2]: fruchtschädigende Wirkung
